Measurements: US20190209581A1, “DOSAGE REGIMEN FOR TREATMENT OF SOLID TUMORS” (Eli Lilly and Company, priority 2016, published 2019)
Entries after “also recorded” stand apart in the source; their conditions may differ.

Experiments:
[1] = Toxicokinetics in rats; type: in vivo, rat
Experimental: A study is carried out to assess the toxicity and toxicokinetics of 4,4,4-Trifluoro-N-[(1S)-2-[[(7S)-5-(2-hydroxyethyl)-6-oxo-7H-pyrido[2,3-d][3]benzazepin-7-yl]amino]-1-methyl-2-oxo-ethyl]butanamide in rats given oral gavage doses of 0, 1.3, or 4.3 mg/kg once daily for 2 weeks or 1, 3, 10, or 30 mg/kg 3 times/week for 2 weeks.
4,4,4-Trifluoro-N-[(1S)-2-[[(7S)-5-(2-hydroxyethyl)-6-oxo-7H-pyrido[2,3-d][3]benzazepin-7-yl]amino]-1-methyl-2-oxo-ethyl]butanamide is combined with a vehicle comprising 1% carboxymethylcellulose sodium, 0.25% polysorbate 80 and 0.05% Dow Corning® Antifoam 1510-US in purified water. Sprague Dawley CD®/IGS rats (crl:CD(SD)), International Genetic Standardization (IGS) 7-9 week old rats, 3/sex/group, Charles River Laboratories, Inc, are used for the study. Animals are fed ad libitum with 12 hours light, 12 hours dark cycle maintained in ventilated stainless-steel racks at an ambient temperature of 22.2+/[…] and relative humidity of 30% to 70%. The test compound is dosed according to Table 1. The test compound is administered by oral gavage in a volume of 10 mL/kg body weight. The duration of the study for all groups is 14 days.
Additional Groups of animals 3/sex/group (Groups 08, 09, and 12) and 3 females/group (Groups 10, 11, and 13) are dosed for toxicokinetic evaluations. For Groups 08, 09, and 10, blood is collected from each animal at the following times relative to dosing on Days 3 and 14: 0 (predose; Day 14 only), 0.5, 1, 2, 4, 8, 24, 30, and 48 hours postdose. For Group 11, blood is collected from each animal at the following times relative to dosing on Day 3: 0.5, 1, 2, 4, 8, 24, 30, and 48 hours postdose. For Group 12, blood is collected from each animal at the following times relative to dosing on Days 1 and 14: 0 (predose; Day 14 only), 0.5, 1, 2, 4, 8, and 24 hours postdose. For Group 13 blood is collected from each animal at the following times relative to dosing on Day 1: 0.5, 1, 2, 4, 8, and 24 hours postdose. Groups 08 through 13 are used for toxicokinetic evaluations. […]

[2] = tested on: Dogs (beagle); experiment: Toxicity study in dogs, oral gavage, daily for 6 days or every other day for 3 doses; type: in vivo, dog; details: for Survival: dogs
Experimental: A study is carried out to assess the Toxicity and Toxicokinetics of 4,4,4-trifluoro-N-[(1S)-2-[[(7S)-5-(2-hydroxyethyl)-6-oxo-7H-pyrido[2,3-d][3]benzazepin-7-yl]amino]-1-methyl-2-oxo-ethyl]butanamide in dogs given oral gavage doses of 0 or 1.3 mg/kg once daily for 6 days or 0.3 or 3 mg/kg every other day for a total of 3 doses. 4,4,4-Trifluoro-N-[(1S)-2-[[(7S)-5-(2-hydroxyethyl)-6-oxo-7H-pyrido[2,3-d][3]benzazepin-7-yl]amino]-1-methyl-2-oxo-ethyl]butanamide is combined with a vehicle comprising 1% carboxymethylcellulose sodium, 0.25% polysorbate 80 and 0.05% Dow Corning® Antifoam 1510-US in purified water. Dogs (beagle), Covance Research Products, 1 animal/sex/group are fed daily (soon after dosing) and are fasted overnight prior to scheduled chemistry blood collections and necropsy. The test compound is administered by oral gavage in a volume of 2 mL/kg body weight. The duration of the study for all groups is 6 days.
Groups 01 and 04: At a minimum, observations are recorded daily before dosing, approximately 1 hour postdose, and in the afternoon, with the following exception: afternoon clinical observations are not recorded on weekends.
Groups 02 and 03: At a minimum, observations are recorded before dosing, approximately 1 hour postdose, and in the afternoon on Days 2 and 6; before dosing and approximately 1 hour postdose on Day 4; and at approximately the same times as Groups 01 and/or 04 on Days 3, 5, and 7.
Animals are weighed on Days 1 and 7.
A qualitative assessment of food consumption is made each day by visual estimation of the amount of food remaining (recorded in increments of 25%).
Groups 01 and 04: Blood samples are collected before dosing on Day 1 and on Day 7 (not dosed on Day 7).
Groups 02 and 03: Blood samples are collected before dosing on Days 1 and 6.
Urine samples are collected from all animals by cystocentesis at the scheduled necropsy.

C[C@H](NC(=O)CCC(F)(F)F)C(=O)N[C@@H]1C(=O)N(CCO)c2ncccc2-c2ccccc21 [Compound 1, 4,4,4-trifluoro-N-[(1S)-2-[[(7S)-5-(2-hydroxyethyl)-6-oxo-7H-pyrido[2,3-d][3]benzazepin-7-yl]amino]-1-methyl-2-oxo-ethyl]butanamide]
24 hour drug concentrations ([1]; rat, daily and TIW regimens): minimal
Accumulation and differences between sexes in exposure ([1]; rats, oral gavage): No accumulation or major differences between sexes
Exposure (AUC0-24 hr) versus dose ([1]; rats, oral gavage, following both single and multiple doses): increased in a roughly linear and dose-proportional manner
Compound-related signs ([2]; both, beagle, dog, in vivo, 1.3 mg/kg, 6 days): lateral recumbency and labored respiration for the female on Day 7, decreased activity for both animals on Days 6 and 7, and dehydration (decreased skin elasticity) for both animals on Day 7
Food consumption ([2]; dog, in vivo): Decreased food consumption also occurred in all compound-treated groups
Gastrointestinal toxicity, daily versus three times/week at same total weekly dose ([2]; dog, in vivo): more severe gastrointestinal toxicity compared to three times/week dosing
Tolerability of once daily administration at same total weekly dose ([2]; dog, in vivo): once daily administration is not tolerated
Compound-related signs ([2]; dog, in vivo, 0.3 mg/kg): mucoid, and watery feces
Pathology findings ([2]; dog, in vivo, 0.3 mg/kg): adverse inflammatory changes in the large intestine and evidence of systemic inflammation
Intestinal changes ([2]; dog, in vivo, 1.3 mg/kg): up to marked mucoid enteropathy with red fluid intestinal contents, erosion, ulceration, and mostly neutrophilic mixed inflammation
Other symptoms (feces) ([2]; dog, in vivo, 1.3 mg/kg): red, dark (female only), mucoid, and watery (female only), feces
Compound-related signs ([2]; dog, in vivo, 3 mg/kg): red (male only), mucoid, and watery (male only), feces
Survival ([2]; 1.3 mg/kg daily): euthanized following 6 daily doses due to poor condition
Survival ([2]; 0.3 or 3 mg/kg 3 times/week (Days 2, 4, and 6)): survived until the scheduled termination; also recorded: survived until the scheduled necropsy
